Reference: US6930075B1, “Fatty acid-based herbicidal composition” (priority 1990, dated 2005)

How the values were obtained:
[1] = tested on: Corn; assay: Greenhouse spray, phytotoxicity and mortality over time; assay type: in vivo; conditions: for Mortality: plants died of 8;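 for Phyto (Phytotoxicity, 0–10 rating scale): 0 means no damage and 10 means plant death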
Method: (§1) Herbicidal treatments were applied using a spray chamber fitted with a TeeJet 8006E flat fan nozzle (available from Spraying Systems Co., Wheaton, Ill.), calibrated to spray at a volume of 60 gpa at 40 psi. Treatment solutions were freshly prepared for each experiment. […] M. et al, J. Wiley and Sons, 1975, pp. 119–120, 218.
(§2) In a greenhouse facility four plant species were grown in 5.5 cm square pots using a potting soil mix comprising peat, vermiculite, sand and 4-10-10 fertilizer. Water soluble 20-20-20 fertilizer was used as a supplement for the plants as required. The plant species used were corn, oats, radish and morningglory. The plants were selected for use based on uniformity and quality. The corn plants used were in the 3 to 4 leaf stage and two plants were present in each pot. The oats used were in the 2 to 4 leaf stage and four plants were present per pot. The radish plants used were in the 3 to 5 leaf stage and one plant was used per pot. The morningglory were in the 2 to 4 leaf stage with one plant per pot. After spraying with a herbicidal formulation, the pots were arranged in a randomized complete block design in sub-irrigated watering trays, and included a water-treated control treatment. Four replicates (pots) were used for each treatment.
(§3) Herbicidal treatments were applied and recorded as in Example 1.

[2] = tested on: Morningglory; assay: as above; assay type: in vivo; conditions: for Mortality: plants died of 4;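 for Phyto (Phytotoxicity, 0–10 rating scale): 0 means no damage and 10 means plant death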
Method: as §1, §2, §3

CCCCCCCCC(=O)[O-].[Na+] [Sodium pelargonate]
1.0: Phyto (Phytotoxicity, 0–10 rating scale) ([1]; 16 Days after Treatment, listed as 0.5% C9 Na^+ Salt) | Phyto (Phytotoxicity, 0–10 rating scale) ([1]; 18 Days after Treatment, listed as 0.1% C9 Na^+ Salt) | Phyto (Phytotoxicity, 0–10 rating scale) ([1]; 18 Days after Treatment, listed as 0.5% C9 Na^+ Salt) | Phyto (Phytotoxicity, 0–10 rating scale) ([1]; 21 Days after Treatment, listed as 0.1% C9 Na^+ Salt) | Phyto (Phytotoxicity, 0–10 rating scale) ([1]; 21 Days after Treatment, listed as 0.5% C9 Na^+ Salt) | Phyto (Phytotoxicity, 0–10 rating scale) ([1]; 23 Days after Treatment, listed as 0.1% C9 Na^+ Salt) | Phyto (Phytotoxicity, 0–10 rating scale) ([1]; 23 Days after Treatment, listed as 0.5% C9 Na^+ Salt) | Phyto (Phytotoxicity, 0–10 rating scale) ([1]; 25 Days after Treatment)
0.75: Phyto (Phytotoxicity, 0–10 rating scale) ([1]; 23 Days after Treatment, listed as 1.0% C9 Na^+ Salt)
0.5: Phyto (Phytotoxicity, 0–10 rating scale) ([1]; 9 Days after Treatment, listed as 0.5% C9 Na^+ Salt) | Phyto (Phytotoxicity, 0–10 rating scale) ([1]; 11 Days after Treatment, listed as 0.5% C9 Na^+ Salt) | Phyto (Phytotoxicity, 0–10 rating scale) ([1]; 21 Days after Treatment, listed as 1.0% C9 Na^+ Salt)
0: Phyto (Phytotoxicity, 0–10 rating scale) ([1]; 2 Days after Treatment) | Mortality ([1]; 2 Days after Treatment) | Phyto (Phytotoxicity, 0–10 rating scale) ([1]; 4 Days after Treatment) | Mortality ([1]; 4 Days after Treatment) | Phyto (Phytotoxicity, 0–10 rating scale) ([1]; 7 Days after Treatment) | Mortality ([1]; 7 Days after Treatment) | Phyto (Phytotoxicity, 0–10 rating scale) ([1]; 9 Days after Treatment, listed as 0.1% C9 Na^+ Salt) | Phyto (Phytotoxicity, 0–10 rating scale) ([1]; 9 Days after Treatment, listed as 1.0% C9 Na^+ Salt) | Mortality ([1]; 9 Days after Treatment) | Phyto (Phytotoxicity, 0–10 rating scale) ([1]; 11 Days after Treatment, listed as 0.1% C9 Na^+ Salt) | Phyto (Phytotoxicity, 0–10 rating scale) ([1]; 11 Days after Treatment, listed as 1.0% C9 Na^+ Salt) | Mortality ([1]; 11 Days after Treatment) | Mortality ([1]; 16 Days after Treatment) | Mortality ([1]; 18 Days after Treatment) | Mortality ([1]; 21 Days after Treatment) | Mortality ([1]; 23 Days after Treatment) | Mortality ([1]; 25 Days after Treatment) | Phyto (Phytotoxicity, 0–10 rating scale) ([1]; 28 Days after Treatment) | Mortality ([1]; 28 Days after Treatment) | Phyto (Phytotoxicity, 0–10 rating scale) ([1]; 30 Days after Treatment) | Mortality ([1]; 30 Days after Treatment) | Phyto (Phytotoxicity, 0–10 rating scale) ([1]; 32 Days after Treatment) | Mortality ([1]; 32 Days after Treatment) | Phyto (Phytotoxicity, 0–10 rating scale) ([1]; 35 Days after Treatment) | Mortality ([1]; 35 Days after Treatment) | Phyto (Phytotoxicity, 0–10 rating scale) ([1]; 42 Days after Treatment) | Mortality ([1]; 42 Days after Treatment) | Phyto (Phytotoxicity, 0–10 rating scale) ([1]; 46 Days after Treatment) | Mortality ([1]; 46 Days after Treatment) | Phyto (Phytotoxicity, 0–10 rating scale) ([1]; 57 Days after Treatment) | Mortality ([1]; 57 Days after Treatment) | Phyto (Phytotoxicity, 0–10 rating scale) ([2]; 2 Days after Treatment) | Mortality ([2]; 2 Days after Treatment) | Phyto (Phytotoxicity, 0–10 rating scale) ([2]; 4 Days after Treatment) | Mortality ([2]; 4 Days after Treatment) | Phyto (Phytotoxicity, 0–10 rating scale) ([2]; 7 Days after Treatment) | Mortality ([2]; 7 Days after Treatment) | Phyto (Phytotoxicity, 0–10 rating scale) ([2]; 9 Days after Treatment) | Mortality ([2]; 9 Days after Treatment) | Phyto (Phytotoxicity, 0–10 rating scale) ([2]; 11 Days after Treatment) | Mortality ([2]; 11 Days after Treatment) | Phyto (Phytotoxicity, 0–10 rating scale) ([2]; 16 Days after Treatment) | Mortality ([2]; 16 Days after Treatment) | Phyto (Phytotoxicity, 0–10 rating scale) ([2]; 18 Days after Treatment) | Mortality ([2]; 18 Days after Treatment) | Phyto (Phytotoxicity, 0–10 rating scale) ([2]; 21 Days after Treatment) | Mortality ([2]; 21 Days after Treatment) | Phyto (Phytotoxicity, 0–10 rating scale) ([2]; 23 Days after Treatment) | Mortality ([2]; 23 Days after Treatment) | Phyto (Phytotoxicity, 0–10 rating scale) ([2]; 25 Days after Treatment) | Mortality ([2]; 25 Days after Treatment) | Phyto (Phytotoxicity, 0–10 rating scale) ([2]; 28 Days after Treatment) | Mortality ([2]; 28 Days after Treatment) | Phyto (Phytotoxicity, 0–10 rating scale) ([2]; 30 Days after Treatment) | Mortality ([2]; 30 Days after Treatment) | Phyto (Phytotoxicity, 0–10 rating scale) ([2]; 32 Days after Treatment) | Mortality ([2]; 32 Days after Treatment) | Phyto (Phytotoxicity, 0–10 rating scale) ([2]; 35 Days after Treatment) | Mortality ([2]; 35 Days after Treatment)
0.25: Phyto (Phytotoxicity, 0–10 rating scale) ([1]; 16 Days after Treatment, listed as 0.1% C9 Na^+ Salt) | Phyto (Phytotoxicity, 0–10 rating scale) ([1]; 16 Days after Treatment, listed as 1.0% C9 Na^+ Salt) | Phyto (Phytotoxicity, 0–10 rating scale) ([1]; 18 Days after Treatment, listed as 1.0% C9 Na^+ Salt)
